Values of other authors in publication PMC6009888, “Design, synthesis, and pharmacological evaluation of 2-amino-5-nitrothiazole derived semicarbazones as dual inhibitors of monoamine oxidase and cholinesterase: effect of the size of aryl binding site” (Journal of Enzyme Inhibition and Medicinal Chemistry, 2017).

Tests used:
[1] = tested on: MAO-A; design: method as in PMID 12553895, PMID 23325700, PMID 27135466; conditions: Figure 1, lead semicarbazone inhibitors; ref [47–50]; cited from earlier work
[2] = tested on: MAO-B; design: method as in PMID 12553895, PMID 23325700, PMID 27135466; conditions: Figure 1, lead semicarbazone inhibitors; ref [47–50]; cited from earlier work
[3] = target: T1, MAO-A (Rattus norvegicus, UniProt P21396); conditions: reference inhibitors; ref [50]; read-out: MAO-A In vitro IC50 (µM) ± SEM; cited from earlier work
T1 construct: employing crude rat brain mitochondrial suspension; from tissue; host or cells: brain mitochondria of adult Wistar rats
T1 sequence (P21396 1-526): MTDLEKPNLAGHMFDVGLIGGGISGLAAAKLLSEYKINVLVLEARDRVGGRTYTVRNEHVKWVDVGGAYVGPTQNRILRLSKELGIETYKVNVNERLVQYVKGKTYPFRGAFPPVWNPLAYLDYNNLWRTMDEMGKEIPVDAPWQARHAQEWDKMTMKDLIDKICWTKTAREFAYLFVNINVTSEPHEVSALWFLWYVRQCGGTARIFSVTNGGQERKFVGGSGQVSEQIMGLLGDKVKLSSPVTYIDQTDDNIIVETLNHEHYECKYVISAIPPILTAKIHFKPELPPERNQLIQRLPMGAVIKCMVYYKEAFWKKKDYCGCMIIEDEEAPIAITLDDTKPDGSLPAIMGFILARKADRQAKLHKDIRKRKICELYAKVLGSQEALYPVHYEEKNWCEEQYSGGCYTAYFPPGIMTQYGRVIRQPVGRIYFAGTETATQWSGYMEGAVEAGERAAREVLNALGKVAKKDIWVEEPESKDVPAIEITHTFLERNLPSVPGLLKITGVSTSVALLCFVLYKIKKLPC

[4] = target: T2, MAO-B (Rattus norvegicus, UniProt P19643); design: method as in PMID 27135466; conditions: reference inhibitors; ref [50]; read-out: MAO-B In vitro IC50 (µM) ± SEM; cited from earlier work
T2 construct: employing crude rat brain mitochondrial suspension; from tissue; host or cells: brain mitochondria of adult Wistar rats
T2 sequence (P19643 1-520): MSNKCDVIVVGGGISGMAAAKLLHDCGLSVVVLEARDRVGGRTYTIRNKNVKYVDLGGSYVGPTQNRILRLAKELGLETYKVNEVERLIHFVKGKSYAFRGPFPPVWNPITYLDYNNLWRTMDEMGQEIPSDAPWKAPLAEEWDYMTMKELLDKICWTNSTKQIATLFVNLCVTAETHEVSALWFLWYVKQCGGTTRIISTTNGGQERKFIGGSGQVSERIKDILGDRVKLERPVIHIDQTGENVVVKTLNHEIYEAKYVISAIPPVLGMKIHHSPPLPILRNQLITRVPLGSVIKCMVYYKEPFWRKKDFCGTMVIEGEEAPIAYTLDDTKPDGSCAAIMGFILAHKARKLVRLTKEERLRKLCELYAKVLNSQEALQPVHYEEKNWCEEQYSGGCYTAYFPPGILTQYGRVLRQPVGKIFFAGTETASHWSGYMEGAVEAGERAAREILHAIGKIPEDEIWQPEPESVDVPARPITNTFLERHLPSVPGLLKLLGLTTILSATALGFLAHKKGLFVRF

[5] = tested on: AChE; design: method as in PMID 12553895, PMID 23325700, PMID 27135466; conditions: Figure 1, lead semicarbazone inhibitors; ref [47–50]; cited from earlier work

Row | Compound | IC50 [1] [µM] | IC50 [2] [µM] | IC50 [3] [µM] | IC50 [4] [µM] | IC50 [5] [µM]
1 | CNC(=O)N(CCO)/N=C/c1ccc(OCc2ccccc2)cc1 [(iv)] | 90 | 2.2 | – | – | –
2 | COc1ccc2c(c1)[nH]c1c(C)nccc12 [HRM, Harmine] | – | – | 3 | 7000 | –
3 | O=C(NN=C(c1ccccc1)c1ccccc1)Nc1ccncc1 [(iii)] | – | – | – | – | 0.052 ± 0.01
4 | O=C(N/N=C(\c1ccccc1)c1ccc(Cl)cc1)Nc1nc2ccc([N+](=O)[O-])cc2s1 [(i)] | 0.184 ± 0.001 | 0.004 ± 0.001 | – | – | –
5 | O=C(N/N=C1/C(=O)Nc2ccccc21)Nc1nc2ccc([N+](=O)[O-])cc2s1 [(v)] | 5.98 ± 0.534 | 2.15 ± 0.095 | – | – | –
6 | O=C(N/N=C/c1c(Cl)cccc1Cl)Nc1ccc2c(c1)OCO2 [(ii)] | 4.52 ± 0.032 | 0.059 ± 0.002 | – | – | 0.0087 ± 0.0002
